Laboratory results reported in PubChem BioAssay (NCI).
“And” between values parts separate entries of the source, which are not always exact repeats. Equal entries are not always repeated.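 Step 1: Grow cells in 96-well plates. Step 2: Expose to compound for 48 hours at 5 concentrations. Step 3: Interpolate endpoints linearly; if unreached, use highest concentration. At the GI50, growth is halved. TGI: total growth inhibition.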

How the values were obtained:
Test in all cases: DTP human tumour cell line panel, 48 h
SNB-78 CNS = system: SNB-78 CNS
OVCAR-4 ovarian = system: OVCAR-4 ovarian
COLO 205 colon = system: COLO 205 colon
OVCAR-3 ovarian = system: OVCAR-3 ovarian
UO-31 renal = system: UO-31 renal
HCC-2998 colon = system: HCC-2998 colon
RXF 393 renal = system: RXF 393 renal
DMS 273 small cell lung = system: DMS 273 small cell lung
DU-145 prostate = system: DU-145 prostate
M14 melanoma = system: M14 melanoma
MDA-MB-231 breast = system: MDA-MB-231 breast

| Compound | TGI (SNB-78 CNS) | TGI (OVCAR-4 ovarian) | TGI (COLO 205 colon) | TGI (OVCAR-3 ovarian) | TGI (UO-31 renal) | TGI (HCC-2998 colon) | TGI (RXF 393 renal) | TGI (DMS 273 small cell lung) | TGI (DU-145 prostate) | TGI (M14 melanoma) | TGI (MDA-MB-231 breast) | GI50 (DU-145 prostate) | GI50 (OVCAR-3 ovarian) | GI50 (UO-31 renal) | GI50 (M14 melanoma) | GI50 (RXF 393 renal) |
| --- | --- | --- | --- | --- | --- | --- | --- | --- | --- | --- | --- | --- | --- | --- | --- | --- |
| COc1ccc(C2CC(c3sc(Nc4ccc(C)cc4)nc3C)=NN2)cc1 (centres undefined) | 52 µM | 18.3 µM | 26.9 µM | 30.1 µM | 29.4 µM | 30.1 µM | 27.1 µM | 38.5 µM | – | – | – | – | – | – | – | – |
| CCC1(O)C(=O)OCc2c1cc1n(c2=O)Cc2cc3cc4c(cc3nc2-1)OCO4 (centres undefined) | > 57.8 µM | 1.49 µM | 1.79 µM | 0.589 µM | 0.0512 µM | 0.396 µM | 0.0578 µM | 0.0151 µM | > 100 µM | 0.0632 µM | – | – | – | – | – | – |
| CCC1(CC)C(=O)NC(=O)NC1=S | > 100 µM | > 100 µM | > 100 µM | > 100 µM | > 100 µM | – | > 100 µM | > 100 µM | – | > 100 µM | – | – | – | – | – | – |
| O=[N+]([O-])c1ccc(C[P+]2(c3ccccc3)CCCCC2)cc1 (tested in a mixture with another compound) | – | > 100 µM | > 100 µM | > 100 µM | > 100 µM | > 100 µM | > 100 µM | > 100 µM | – | > 100 µM | – | – | – | – | – | – |
| O=C(Cn1c2ccc(Br)cc2c2nc3ccccc3nc21)NCc1ccccc1 | – | > 100 µM | > 100 µM | > 100 µM | > 100 µM | > 100 µM | 26.9 µM | – | > 100 µM | > 100 µM | > 100 µM | – | – | – | – | – |
| CN(C)CCNC(=O)c1cccc2c1C(=O)c1ccccc1C2=O | > 86.6 µM | 88.8 µM | 34.2 µM | 52.4 µM | > 100 µM | > 91.6 µM | > 100 µM | 56.6 µM | – | – | – | – | – | – | – | – |
| COc1ccc2c(c1)/C(=C\c1c(Cl)nc3n1CCS3)C(=O)N2 | – | > 100 µM | 10.9 µM | 17.8 µM | > 100 µM | 8.31 µM | 9.91 µM | – | 72.5 µM | > 100 µM | 27.2 µM | – | – | – | – | – |
| NCCCn1c(Cl)nc2ccccc21 | – | > 100 µM | > 100 µM | > 100 µM | > 100 µM | > 100 µM | > 100 µM | – | > 100 µM | > 100 µM | > 100 µM | – | – | – | – | – |
| CCC1c2[nH]c3ccccc3c2C[C@H]2C(=O)NC(C)C(=O)N12 (some centres undefined) | – | > 100 µM | > 100 µM | > 100 µM | > 100 µM | > 100 µM | > 100 µM | – | > 100 µM | > 100 µM | > 100 µM | – | – | – | – | – |
| CS(=O)(=O)OCCN(CCOS(C)(=O)=O)c1ccc(C=Nc2ccc(-c3csc(Cc4ccccc4)n3)cc2)c(Cl)c1 | – | > 100 µM | 36 µM | > 63.7 µM | > 85.8 µM | 35.1 µM | 98.6 µM | – | > 86.5 µM | > 62.7 µM | 75.6 µM | – | – | – | – | – |
| Nc1nnc(N)n1N | > 100 µM | > 100 µM | > 100 µM | – | > 100 µM | > 100 µM | > 100 µM | > 100 µM | – | > 100 µM | – | – | – | – | – | – |
| COc1ccc(-c2cc(-c3ccc(C)cc3)n(C3OC(COC(C)=O)C(OC(C)=O)C(OC(C)=O)C3OC(C)=O)c(=S)c2C#N)cc1 (centres undefined) | – | > 100 µM | > 100 µM | > 100 µM | > 100 µM | > 100 µM | > 100 µM | – | > 100 µM | > 100 µM | > 100 µM | – | – | – | – | – |
| COC(=O)C1(Cc2ccc3c(c2)CCC3)Cc2ccc3c(c2C1=O)CCC3 (centres undefined) | – | > 66.7 µM | 9.16 µM | 52.8 µM | > 100 µM | 44.5 µM | 22.7 µM | – | > 100 µM | 33.1 µM | > 87.6 µM | – | – | – | – | – |
| CCO/N=C\c1ccc2oc(-c3ccccc3)cc(=O)c2c1 | – | > 85.9 µM | 0.526 µM | 0.913 µM | 5.83 µM | 6.08 µM | 11.6 µM | – | 13.3 µM | > 31.6 µM | 13.1 µM | – | – | – | – | – |
| Nc1cc(C2CCCc3c2[nH]c2ccccc32)ccc1O (centres undefined) | – | > 100 µM | > 100 µM | > 100 µM | > 100 µM | > 100 µM | > 100 µM | – | > 100 µM | > 100 µM | > 100 µM | – | – | – | – | – |
| Cc1[nH]n(-c2nc(-c3ccccc3)cc(=O)[nH]2)c(=O)c1CCO | – | > 100 µM | > 100 µM | > 100 µM | > 100 µM | > 100 µM | > 100 µM | – | > 100 µM | > 100 µM | > 100 µM | – | – | – | – | – |
| CCCC(=O)OCC1OC(n2cc(F)c(=O)[nH]c2=O)CC1OC(=O)CCC (centres undefined) | – | > 10 µM | > 10 µM | > 10 µM | > 10 µM | > 10 µM | > 10 µM | – | > 2.62 µM | > 10 µM | > 10 µM | – | – | – | – | – |
| CCN(CC)Cc1cc(N=Nc2c(O)ccc3c(N=Nc4ccc(O)c(CN(CC)CC)c4)c(O)ccc23)ccc1O | – | 7.21 µM | 3.6 µM | > 20.7 µM | 6.96 µM | 5.18 µM | > 23.1 µM | – | 9.55 µM | > 38.5 µM | 4.52 µM | – | – | – | – | – |
| C(=N\NC1=NCCCCN1)/c1ccc2ccccc2c1 | – | > 100 µM | 31.5 µM | > 100 µM | > 100 µM | 30.3 µM | 60.8 µM | – | > 100 µM | 28 µM | 65.9 µM | – | – | – | – | – |
| O=C(O)c1ccc2c(O)c(O)ccc2c1 | – | 54.1 µM | > 64 µM | 34.5 µM | 41.4 µM | > 60.9 µM | 42.5 µM | – | > 100 µM | 61.8 µM | 68.5 µM | – | – | – | – | – |
| Nc1cc(OCC2CCCCC2)nc(N)n1 | – | > 100 µM | > 100 µM | > 100 µM | > 100 µM | > 100 µM | > 100 µM | – | > 100 µM | > 100 µM | > 100 µM | – | – | – | – | – |
| COc1cc2ncnc(NS(=O)(=O)c3cc4ccccc4s3)c2cc1OC | – | > 100 µM | > 100 µM | > 100 µM | > 100 µM | > 100 µM | > 100 µM | – | > 100 µM | > 100 µM | > 100 µM | – | – | – | – | – |
| C/C(Cc1ccc2c(c1)OCO2)=N\N=c1\sc2ccccc2n1C | – | > 100 µM | > 100 µM | > 100 µM | > 100 µM | > 100 µM | > 100 µM | – | > 100 µM | > 100 µM | > 100 µM | – | – | – | – | – |
| O=C1CCCC2=C1CC1=C(CCCC1=O)N2c1ccc(Cl)cc1 | – | > 100 µM | > 100 µM | > 100 µM | > 100 µM | > 100 µM | > 100 µM | – | > 100 µM | > 100 µM | > 100 µM | – | – | – | – | – |
| CCCCn1c(=O)[nH]c2c(N)ncnc21 | – | > 100 µM | > 100 µM | > 100 µM | > 100 µM | > 100 µM | > 100 µM | – | > 100 µM | > 100 µM | > 100 µM | – | – | – | – | – |
| ClCCCN1CCN(CCCl)CC1 | > 567 µM | 430 µM | 468 µM | 430 µM | 493 µM | 997 µM | 439 µM | 475 µM | 692 µM | 872 µM | > 768 µM | 26.9 µM | 84.3 µM | 56.4 µM | 77.2 µM | – |
| CN(C)N1C(=O)C(=O)N(c2cccc3ccccc23)C1=O | – | > 10 µM | > 10 µM | > 10 µM | > 10 µM | > 10 µM | > 10 µM | – | > 10 µM | > 10 µM | > 10 µM | – | – | – | – | – |
| COc1ccc2[nH]c3ccc4cc[n+](CCN5CCC(C6CCN(CC[n+]7ccc8ccc9[nH]c%10ccc(OC)cc%10c9c8c7)CC6)CC5)cc4c3c2c1 | 66.4 µM | 17.7 µM and > 100 µM | > 50 µM | 50 µM and > 76.2 µM | 50 µM and > 100 µM | 14.2 µM and > 100 µM | 50 µM and 10.8 µM | > 100 µM | 50 µM | > 50 µM | 50 µM | – | 42.6 µM | 42.5 µM | – | 38.1 µM |
